In patent publication US20230072860A1, “ISOXAZOLINE OXIME FORMATE COMPOUND, PREPARATION METHOD THEREFOR, HERBICIDAL COMPOSITION AND USE THEREOF” (QINGDAO KINGAGROOT CHEMICAL COMPOUND CO., LTD., priority 2020, published 2023):

Legend:
Experiment in all cases: Experiment on weeding effect in post-emergence stage
Type in all cases: in vivo
Settings in all cases: dose 15 g a.i./ha, fresh weight control rate level
Eleusine indica = test system: Eleusine indica
Description: (§1) Experiment on weeding effect in post-emergence stage:
(§2) Monocotyledonous and dicotyledonous weed seeds (Descurainia sophia, Capsella bursa-pastoris, Abutilon theophrasti, Galium aparine, Stellaria media, Lithospermum arvense, Rorippa indica, Alopecurus aequalis, Alopecurus japonicus, Beckmannia syzigachne, Sclerochloa dura, Conyza Canadensis, Phleum paniculatum, Veronica didyma Tenore, Eleusine indica, Bromus japonicus, Aegilops tauschii, Phalaris arundinacea, Amaranthus retroflexus, Chenopodium album, Commelina communis, Sonchus arvensis, Convolvulus arvensis, Cirsium setosum, Solanum nigrum, Acalypha australis, Digitaria sanguinalis, Echinochloa crusgalli, Setaria viridis, Setaria glauca, Leptochloa chinensis, Monochoria vaginalis, Sagittaria trolia, Scirpus juncoides, Cyperus rotundus, Cyperus iria, Cyperus difformis, Elmbristylis, Portulaca oleracea, Xanthium sibiricum, Pharbitis nil) and major crop seeds (wheat, corn, rice, soybean, cotton, oilseed rape, millet, sorghum, potato, sesame, ricinus) were placed in plastic pots filled with soil, then covered with 0.5-2 cm of soil, allowed to grow in a good greenhouse environment. After 2 weeks of sowing, the test plants were treated in the 2-3 leaf stage. The tested compounds of the present invention were respectively dissolved in acetone, then added with Tween 80 and 1.5 liter/ha of emulsifiable concentrate of methyl oleate as synergist, diluted with a certain amount of water to obtain a solution with a certain concentration, and sprayed with a spray tower onto the plants. After the application, the plants were cultured for 3 weeks in the greenhouse, and then the experimental results of the weeding were counted. The doses of the used compounds were 500, 250, 125, 60, 15 g a.i./ha, and the averages were obtained by repeating for three times.

Abutilon theophrasti = test system: Abutilon theophrasti
Description: as §1, §2

Setaria viridis = test system: Setaria viridis
Description: as §1, §2

Digitaria sanguinalis = test system: Digitaria sanguinalis
Description: as §1, §2

Echinochloa crusgalli = test system: Echinochloa crusgalli
Description: as §1, §2

Leptochloa chinensis = test system: Leptochloa chinensis
Description: as §1, §2

Galium aparine = test system: Galium aparine
Description: as §1, §2

Amaranthus retroflexus = test system: Amaranthus retroflexus
Description: as §1, §2

Veronica didyma Tenore = test system: Veronica didyma Tenore
Description: as §1, §2

| Compound | weeding effect in post-emergence stage, Eleusine indica (level) (Eleusine indica) | weeding effect in post-emergence stage, Abutilon theophrasti (level) (Abutilon theophrasti) | weeding effect in post-emergence stage, Setaria viridis (level) (Setaria viridis) | weeding effect in post-emergence stage, Digitaria sanguinalis (level) (Digitaria sanguinalis) | weeding effect in post-emergence stage, Echinochloa crusgalli (level) (Echinochloa crusgalli) | weeding effect in post-emergence stage, Leptochloa chinensis (level) (Leptochloa chinensis) | weeding effect in post-emergence stage, Galium aparine (level) (Galium aparine) | weeding effect in post-emergence stage, Amaranthus retroflexus (level) (Amaranthus retroflexus) | weeding effect in post-emergence stage, Veronica didyma Tenore (level) (Veronica didyma Tenore) |
| --- | --- | --- | --- | --- | --- | --- | --- | --- | --- |
| CC(=NOC(=O)C1(C)CC(c2cc(-n3c(=O)n(C)c(=S)n(C)c3=O)c(F)cc2Cl)=NO1)C(C)(C)C (mixture of isomers) [Compound 81] | 5 (Level 5: growth control rate is above 85%) | 5 (Level 5: growth control rate is above 85%) | 5 (Level 5: growth control rate is above 85%) | 5 (Level 5: growth control rate is above 85%) | 5 (Level 5: growth control rate is above 85%) | 5 (Level 5: growth control rate is above 85%) | 5 (Level 5: growth control rate is above 85%) | 5 (Level 5: growth control rate is above 85%) | 5 (Level 5: growth control rate is above 85%) |
| Cn1c(=S)n(C)c(=O)n(-c2cc(C3=NOC(C)(C(=O)ON=Cc4ccccc4)C3)c(Cl)cc2F)c1=O (mixture of isomers) [Compound 90] | 5 (Level 5: growth control rate is above 85%) | 5 (Level 5: growth control rate is above 85%) | 5 (Level 5: growth control rate is above 85%) | 5 (Level 5: growth control rate is above 85%) | 5 (Level 5: growth control rate is above 85%) | 5 (Level 5: growth control rate is above 85%) | 5 (Level 5: growth control rate is above 85%) | 5 (Level 5: growth control rate is above 85%) | 5 (Level 5: growth control rate is above 85%) |
| Cc1ccc(C=NOC(=O)C2(C)CC(c3cc(-n4c(=O)n(C)c(=S)n(C)c4=O)c(F)cc3Cl)=NO2)s1 (mixture of isomers) [Compound 118] | 5 (Level 5: growth control rate is above 85%) | 5 (Level 5: growth control rate is above 85%) | 5 (Level 5: growth control rate is above 85%) | 5 (Level 5: growth control rate is above 85%) | 5 (Level 5: growth control rate is above 85%) | 5 (Level 5: growth control rate is above 85%) | 5 (Level 5: growth control rate is above 85%) | 5 (Level 5: growth control rate is above 85%) | 5 (Level 5: growth control rate is above 85%) |
| CCC(CC)=NOC(=O)C1(C)CC(c2cc(-n3c(=O)n(C)c(=S)n(C)c3=S)c(F)cc2Cl)=NO1 (stereo not drawn) [Compound 60] | 5 (Level 5: growth control rate is above 85%) | 5 (Level 5: growth control rate is above 85%) | 5 (Level 5: growth control rate is above 85%) | 5 (Level 5: growth control rate is above 85%) | 5 (Level 5: growth control rate is above 85%) | 5 (Level 5: growth control rate is above 85%) | 5 (Level 5: growth control rate is above 85%) | 5 (Level 5: growth control rate is above 85%) | 5 (Level 5: growth control rate is above 85%) |
| C/C(=N\OC(=O)C1(C)CC(c2cc(-n3c(=O)n(C)c(=S)n(C)c3=S)c(F)cc2Cl)=NO1)c1ccccc1 (stereo not drawn) [Compound 70] | 5 (Level 5: growth control rate is above 85%) | 5 (Level 5: growth control rate is above 85%) | 5 (Level 5: growth control rate is above 85%) | 5 (Level 5: growth control rate is above 85%) | 5 (Level 5: growth control rate is above 85%) | 5 (Level 5: growth control rate is above 85%) | 5 (Level 5: growth control rate is above 85%) | 5 (Level 5: growth control rate is above 85%) | 5 (Level 5: growth control rate is above 85%) |
| CC=NOC(=O)C1(C)CC(c2cc(-n3c(=O)n(C)c(=S)n(C)c3=O)c(F)cc2Cl)=NO1 (mixture of isomers) [Compound 2] | 5 (Level 5: growth control rate is above 85%) | 5 (Level 5: growth control rate is above 85%) | 5 (Level 5: growth control rate is above 85%) | 5 (Level 5: growth control rate is above 85%) | 5 (Level 5: growth control rate is above 85%) | 5 (Level 5: growth control rate is above 85%) | 5 (Level 5: growth control rate is above 85%) | 5 (Level 5: growth control rate is above 85%) | 5 (Level 5: growth control rate is above 85%) |
| C/C(=N\OC(=O)C1(C)CC(c2cc(-n3c(=O)n(C)c(=S)n(C)c3=S)c(F)cc2Cl)=NO1)C(C)C (stereo not drawn) [Compound 58] | 5 (Level 5: growth control rate is above 85%) | 5 (Level 5: growth control rate is above 85%) | 5 (Level 5: growth control rate is above 85%) | 5 (Level 5: growth control rate is above 85%) | 5 (Level 5: growth control rate is above 85%) | 5 (Level 5: growth control rate is above 85%) | 5 (Level 5: growth control rate is above 85%) | 5 (Level 5: growth control rate is above 85%) | 5 (Level 5: growth control rate is above 85%) |
